Laboratory results published in US11166460B2, “α-amino acrylate microbicide, and preparation method therefor and uses thereof” (priority 2017, dated 2021).
Values after ≈ are worked out from the molar mass of the structure shown. Read-outs that look alike come from different tables or passages of the source.

Key:
[1] = tested on: tobacco mosaic virus (TMV); test: Anti-TMV inducing activity (induction mode), tobacco seedlings; format: in vivo; details: Tobacco mosaic virus, read-out: Anti-TMV activity, Induction effect (inhibition), 100 μg/mL, tobacco seedlings
[2] = tested on: Phytophthora infestans (Mont) de Bary; test: microbe, parasite or virus in culture; format: cell-based; details: Phytophthora infestans
[3] = tested on: tobacco mosaic virus (TMV); test: Anti-TMV inactivation activity (inactivation mode), compound mixed with TMV before inoculation of tobacco leaves; format: in vivo; details: Tobacco mosaic virus, read-out: Anti-TMV activity, Inactivation effect (inhibition)
Cercospora arachidicola = test: Fungicidal activity, fungi growth rate method, CA; format: cell-based; details: Mycosphaerella arachidis, 50 μg/mL
Alternaria solani = test: Fungicidal activity, fungi growth rate method, AS; format: cell-based; details: Alternaria solani; 50 μg/mL; read-out: Fungicidal activity, inhibition, AS
[4] = tested on: tobacco mosaic virus (TMV); test: Anti-TMV curative activity (treatment mode), live friction inoculation on tobacco seedlings; format: in vivo; details: Tobacco mosaic virus, read-out: Anti-TMV activity, Curative effect (inhibition), 100 μg/mL, tobacco seedlings, checked on seventh day
Physalospora piricola = test: Fungicidal activity, fungi growth rate method, PP; format: cell-based; details: 50 μg/mL
Pellicularia sasakii = test: Fungicidal activity, fungi growth rate method, PS; format: cell-based; details: 50 μg/mL
Botrytis cinerea = test: Fungicidal activity, fungi growth rate method, BC; format: cell-based; details: Botrytis cinerea, 50 μg/mL
Rhizoctonia cerealis = test: Fungicidal activity, fungi growth rate method, RC; format: cell-based; details: Ceratobasidium cereale; 50 μg/mL; read-out: Fungicidal activity, inhibition, RC
Sclerotinia sclerotiorum = test: microbe, parasite or virus in culture; format: cell-based; details: Sclerotinia sclerotiorum; for inhibition at 50 µg/mL: 50 μg/mL
[5] = tested on: tobacco mosaic virus (TMV); test: Anti-TMV protective activity (protection mode), live friction inoculation on tobacco seedlings; format: in vivo; details: Tobacco mosaic virus, read-out: Anti-TMV activity, Protection effect (inhibition)
wheat Gibberella zeae = test: microbe, parasite or virus in culture; format: cell-based; details: Fusarium graminearum
[6] = read-out: Fungicidal activity, inhibition, PI
[7] = read-out: Fungicidal activity, inhibition, CA
[8] = read-out: Fungicidal activity, inhibition, PP
[9] = read-out: Fungicidal activity, inhibition, PS
[10] = read-out: Fungicidal activity, inhibition, BC
[11] = read-out: Fungicidal activity (inhibition) against SS: Sclerotinia sclerotiorum
[12] = read-out: Fungicidal activity, inhibition, SS
[13] = read-out: Fungicidal activity, inhibition, GZ

Structure (SMILES) | inhibition at 100 µg/mL [1] | inhibition at 50 µg/mL [2, 6] | inhibition at 100 µg/mL [3] | melting point | inhibition at 50 µg/mL (Cercospora arachidicola; [7]) | inhibition at 50 µg/mL (Alternaria solani) | inhibition at 100 µg/mL [4] | inhibition at 50 µg/mL (Physalospora piricola; [8]) | inhibition at 50 µg/mL (Pellicularia sasakii; [9]) | inhibition at 50 µg/mL (Botrytis cinerea; [10]) | inhibition at 50 µg/mL (Rhizoctonia cerealis) | inhibition at 50 µg/mL (Sclerotinia sclerotiorum; [11]) | inhibition at 50 µg/mL (Sclerotinia sclerotiorum; [12]) | inhibition at 100 µg/mL [5] | inhibition at 50 µg/mL (wheat Gibberella zeae; [13]) | other results
CC(C)(C)OC(=O)N1CCC(C(=O)N/C(=C\c2ccccc2)C(=O)N2CCC(O)(c3ccc(Br)cc3)CC2)CC1 [Compound 3, (Z)-N-[1-[[4-(4-bromophenyl)-4-hydroxy-1-piperidinyl]carbonyl]-2-phenylethenyl]-1-Boc-piperidine-4-carboxamide] | 0% | 19% | 14% | 145 to 147 °C | 25% | 32% | 59% | 21% | 23% | 24% | 26% | 60 to 80% | 75% | 51% | 34% | –
COc1ccc(C(=O)N/C(=C\c2ccccc2)C(=O)N2CCC(O)(c3ccc(Br)cc3)CC2)cc1 [Compound 5, (Z)-N-[1-[[4-(4-bromophenyl)-4-hydroxy-1-piperidinyl]carbonyl]-2-phenylethenyl]-4-methoxybenzamide] | 2% | 18% | 49% | 195 to 197 °C | 9% | 13% | 1% | 7% | 13% | 13% | 7% | 60 to 80% | 80% | 48% | 11% | –
O=C(N/C(=C\c1ccccc1)C(=O)N1CCC(O)(c2ccc(Br)cc2)CC1)c1ccc(F)cc1 [Compound 6, (Z)-N-[1-[[4-(4-bromophenyl)-4-hydroxy-1-piperidinyl]carbonyl]-2-phenylethenyl]-4-fluorobenzamide] | 6% | 50% | 50% | 129 to 130 °C | 49% | 31% | 15% | 49% | 54% | 48% | 51% | – | 96% | 45% | 44% | inhibition at 50 µg/mL ([2]; read-out: Fungicidal activity (inhibition) against PI: Phytophthora infestans (Mont) de Bary): 50%; inhibition at 50 µg/mL (Cercospora arachidicola; read-out: Fungicidal activity (inhibition) against CA: Cercospora arachidicola): 49%; inhibition at 50 µg/mL (Physalospora piricola; read-out: Fungicidal activity (inhibition) against PP: Physalospora piricola): 49%; inhibition at 50 µg/mL (Pellicularia sasakii; read-out: Fungicidal activity (inhibition) against PS: Pellicularia sasakii): 54%; inhibition at 50 µg/mL (Botrytis cinerea; read-out: Fungicidal activity (inhibition) against BC: Botrytis cinerea): 48%; EC90 (Sclerotinia sclerotiorum; read-out: EC90 against S. sclerotiorum in vitro): 218 µg/mL (≈ 416 µM)
O=C(N/C(=C\c1ccccc1)C(=O)N1CCC(O)(c2ccc(Br)cc2)CC1)c1ccc(Cl)cc1 [Compound 7, (Z)-N-[1-[[4-(4-bromophenyl)-4-hydroxy-1-piperidinyl]carbonyl]-2-phenylethenyl]-4-chlorobenzamide] | 1% | 16% | 31% | 193 to 194 °C | 18% | 25% | 39% | 12% | 20% | 21% | 18% | – | 44% | 50% | 71% | inhibition at 50 µg/mL (wheat Gibberella zeae; read-out: Fungicidal activity (inhibition) against GZ: wheat Gibberella zeae): 71%
O=C(N/C(=C\c1ccccc1)C(=O)N1CCC(O)(c2ccc(Br)cc2)CC1)c1ccc(Br)cc1 [Compound 8, (Z)-N-[1-[[4-(4-bromophenyl)-4-hydroxy-1-piperidinyl]carbonyl]-2-phenylethenyl]-4-bromobenzamide] | 50% | 26% | 19% | 186 to 188 °C | 18% | 21% | 0% | 6% | 20% | 18% | 23% | – | 50% | 1% | 29% | –
